Source: publication PMC10223898 (Pharmaceuticals, 2023)
Like-named read-outs stand apart in the source and are kept apart here.

Tests used:
[1] = system: AI-2 QS in WHQ02 (E. coli BL21 ΔTolC pWHQ01); assay: Cell-based AI-2-mediated QS interference assay in WHQ02; details: Escherichia coli
Text: (§1) All chemicals were purchased from Sigma-Aldrich (St. Louis, MO, USA) if not otherwise stated. DPD was purchased from […] ZZBIO Co., Ltd. (Shanghai, China). The Kinase-Glo Max Luminescent kinase assay kit was purchased from Promega Corp. (Madison, WI, USA). The NTA sensor chip was purchased from GE Healthcare (Chicago, IL, USA). All compounds selected by virtual screening were purchased from Topscience Biotechnology Co., Ltd. (Shanghai, China). The QS reporter strains WHQ01 (S. typhimurium ATCC 202165 ΔTolC pWHQ01) and WHQ02 (E. coli BL21 ΔTolC pWHQ01) were donated by Huiqi Wen (Institute of Microbiology and Epidemiology, Academy of Military Sciences, Beijing, China). The plasmid pWHQ01 was constructed by cloning of lsr promoters and the luxCDABE luminescent gene. BamHI, XhoI, EcoRI, and NotI restriction endonucleases were purchased from New England Biolabs (Ipswich, MA, USA). pET-28a and pGEX-4T-1 were purchased from Novagen (Madison, WI, USA). E. coli BL21 (DE3) was purchased from TransGen Biotech Co., Ltd. (Beijing, China). The Ni-NTA column and GST Gravity column were purchased from Sangon Biotech (Shanghai, China). Sodium dodecyl sulfate-polyacrylamide gel electrophoresis (SDS-PAGE) gels and the Bradford Protein Assay Kit were purchased from Thermo Fisher Scientific (Waltham, MA, USA). Ultrafiltration centrifuge tubes were purchased from Millipore (Bedford, MA, USA). Dialysis bags were purchased from Beijing Solarbio Science and Technology Co., Ltd. (Beijing, China).
(§2) WHQ01 or WHQ02 was cultured overnight and diluted 1:100 in fresh LB supplemented with 100 µg/mL ampicillin and grown at 30 °C until the logarithmic phase (OD600 = 0.4–0.6). The bacterial culture was centrifuged at 4000× g for 5 min and the pellet was resuspended with fresh LB to prepare a suspension of 2 McFarland standard, which was added to a 96-well plate. In the experimental group, 62 compounds with final concentrations ranging from […] were added to obtain a total volume of 100 µL. A negative control comprising 100 µL of LB with DMSO of the same volume and a positive control comprising 100 µL of LB supplemented with 2% glucose and DMSO of the same volume were also added. Then, bacteria were grown at 37 °C for 3 h. The […] of WHQ01 or WHQ02 was directly regulated by the Lsr promoters to reflect the strength of AI-2 QS. Luminescence was measured by the Enspire 2300 microplate reader. To further study the effect of compounds on bacterial growth, a suspension containing 1 × 10^8 CFU/mL of WHQ01 or WHQ02 (0.5 McFarland standard) was diluted 1:100 with LB and added to a 96-well plate. Compounds were added to the 96-well plate at a final concentration of 100 µM and diluted in a gradient. DMSO of the same volume was added as the control group. The plate was grown at 37 °C for 18–24 h. The OD600 values were recorded using the Enspire 2300 microplate reader. The experiment was performed three times.

[2] = system: AI-2 QS in WHQ01 (S. typhimurium ATCC 202165 ΔTolC pWHQ01); assay: Cell-based AI-2-mediated QS interference assay in WHQ01; details: Salmonella enterica, read-out: WHQ01 (IC50)
Text: as §1, §2

LsrK [3] = biological target: T1, LsrK (Salmonella typhimurium, UniProt Q8ZKQ6); assay: LsrK inhibition assay (Kinase-Glo luminescence); assay type: biochemical, S. typhimurium; details: for inhibition at 200 µM: compound at 200 μM
T1 construct: hexa-histidine (C); made in house; host or cells: E. coli BL21(DE3), pET-28a
T1 sequence (Q8ZKQ6 whole entry): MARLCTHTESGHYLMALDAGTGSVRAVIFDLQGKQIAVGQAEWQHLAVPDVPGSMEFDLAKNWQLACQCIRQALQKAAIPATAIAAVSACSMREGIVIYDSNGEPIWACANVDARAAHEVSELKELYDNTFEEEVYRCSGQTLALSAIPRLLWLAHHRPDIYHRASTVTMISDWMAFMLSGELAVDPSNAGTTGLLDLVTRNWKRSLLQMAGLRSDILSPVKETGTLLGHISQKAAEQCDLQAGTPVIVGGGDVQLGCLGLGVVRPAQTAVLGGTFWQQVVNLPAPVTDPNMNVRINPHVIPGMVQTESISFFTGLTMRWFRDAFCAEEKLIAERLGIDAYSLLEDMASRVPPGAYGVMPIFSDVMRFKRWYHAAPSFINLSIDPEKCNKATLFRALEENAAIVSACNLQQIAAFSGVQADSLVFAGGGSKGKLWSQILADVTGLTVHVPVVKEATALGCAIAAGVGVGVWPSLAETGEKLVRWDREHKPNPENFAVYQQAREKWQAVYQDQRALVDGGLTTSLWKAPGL
Description: (§3) To express LsrK or LsrK-N with a hexa-histidine tag at the C-terminus, the LsrK or LsrK-N encoding gene of S. typhimurium was amplified using primers carrying restriction endonuclease sites for BamHI and XhoI, respectively. The amplified product was cloned into the expression vector pET-28a with a C-terminal hexa-histidine tag and transfected into E. coli BL21(DE3) cells. The transformed cells were selected on LB agar plates containing 50 µg/mL kanamycin. The recombinant isolates were grown at 37 °C to the mid-log exponential phase. Protein synthesis was induced by 0.5 mM IPTG. After overnight growth, the cells were pelleted at 13,000× g for 10 min at 4 °C, resuspended in lysis buffer (50 mM NaH2PO4, 300 mM NaCl, and pH 8.0), and sonicated on ice for 10 cycles with a 30-s pulse and 30-s pause. The bacterial lysate was then centrifuged at 4 °C, 13,000× g for 10 min, and the supernatant passed through a 0.22 µm filter.
The LsrK inhibition assay was performed as described previously. The 62 selected compounds were dissolved in DMSO at a concentration of 2 mM. The assay was carried out with final concentrations of 300 nM LsrK, 100 μM ATP, and 300 μM DPD in a reaction buffer containing 25 mM TEA, pH 7.4, 800 μM MgCl2, and 0.1 mg/mL BSA. Specifically, 10 μL DPD, 10 μL LsrK, and 5 μL of the compound were added to a 96-well plate, and a 25 μL ATP or 25 μL reaction buffer was added after 30 min of incubation. The plate was incubated for 10 min at 37 °C, then 50 μL of kit reagent was added and the plate was incubated at 37 °C for 15 min. The luminescence signal was measured by the Enspire 2300 microplate reader (PerkinElmer). To confirm the activity of hits selected by primary screening, dose-response experiments were performed (200–6.25 µM). The inhibition % for each tested compound was determined as described previously. The IC50 values were calculated using the four logistic parameters.

LsrK [4] = biological target: T1, LsrK; assay: LsrK inhibition assay (Kinase-Glo luminescence); assay type: biochemical, S. typhimurium; details: dose-response curves at 50, 100 and 150 μM ATP
LsrK [5] = biological target: T1, LsrK; assay: SPR assay on immobilized LsrK; assay type: binding, S. typhimurium
Description: as §3
(§4) Serial dilutions of compound 4171-0375 were injected, ranging in concentrations from 100 to 1.56 µM, an intermediate concentration of 12.5 µM was set as a repeat, and 1× PBS-T with 5% v/v DMSO was set as a control group. The association time was set to 120 s, the dissociation time was set to 130 s, and the flow rate was set to 30 µL/min. The resulting data were fit to the affinity binding model using Biacore Evaluation Software (GE Healthcare).

[6] = biological target: T2, LsrK-N protein (HPr binding domain, residues 1-260) (Salmonella typhimurium, UniProt Q8ZKQ6); assay: SPR assay on immobilized LsrK-N; design: species or system S. typhimurium
T2 construct: hexa-histidine (C); made in house; host or cells: E. coli BL21(DE3), pET-28a
T2 sequence (Q8ZKQ6 1-260): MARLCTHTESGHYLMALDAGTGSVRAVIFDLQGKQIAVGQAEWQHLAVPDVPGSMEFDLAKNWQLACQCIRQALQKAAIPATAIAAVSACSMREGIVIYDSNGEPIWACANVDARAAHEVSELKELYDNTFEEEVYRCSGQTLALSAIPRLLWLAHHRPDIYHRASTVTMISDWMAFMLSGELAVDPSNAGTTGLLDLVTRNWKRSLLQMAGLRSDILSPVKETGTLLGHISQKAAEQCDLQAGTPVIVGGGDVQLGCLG
Description: as §3, §4

[7] = dose-response 200–6.25 µM, 100 μM ATP, 300 μM DPD, mean ± SD, n = 3, read-out: LsrK (IC50)
[8] = dose-response assay, read-out: LsrK inhibition IC50

Row | SMILES | IC50 ([1]; BL21, read-out: WHQ02 (IC50)) | IC50 [2] | inhibition at 200 µM (LsrK [3]; mean ± SD, n = 3) | IC50 (LsrK [3]; [7]) | ATP competition (mode of inhibition) (LsrK [4]) | IC50 (LsrK [3]; [8]) | IC50 ([1]; BL21, read-out: AI-2 QS inhibition IC50 against WHQ02) | Kd (LsrK [5]; His-tagged LsrK on NTA chip, Biacore 8K, affinity model) | binding and dissociation behaviour on LsrK (SPR) (LsrK [5]; sensorgram, in words) | Kd ([6]; His-tagged LsrK-N on NTA chip, Biacore 8K, affinity model) | binding and dissociation behaviour on LsrK-N (SPR) ([6]; sensorgram, in words)
1 | Cc1ccc(NC(=O)C[C@H](C)n2ccnc2)cc1Cl [Compound G268-0878] | 42.3 ± 1.42 µM | 30.6 ± 1.26 µM | 58 ± 5% | 129 ± 6.14 µM |  |  |  |  |  |  | 
2 | COc1cc(/C=C2/SC(=S)N(c3cccc(C(F)(F)F)c3)C2=O)ccc1OCC(=O)O [Compound 3229-1889] | 15 ± 1.24 µM | 24.7 ± 1.42 µM | 63 ± 4% | 121 ± 5.37 µM |  |  |  |  |  |  | 
3 | Cc1c(CC(=O)O)c(=O)oc2c(C)c(OCc3ccc(F)cc3F)ccc12 [Compound D715-0257] | 22.3 ± 2.15 µM | 21.1 ± 1.18 µM | 57 ± 7% | 153 ± 5.43 µM |  |  |  |  |  |  | 
4 | NCCc1cn(Cc2ccc(C(F)(F)F)cc2)nn1 [Compound 8020-4294] | 67.2 ± 4.32 µM | 24.9 ± 1.1 µM | 65 ± 9% | 148 ± 6.92 µM |  |  |  |  |  |  | 
5 | CCOc1cc(C2NC(C(=O)O)CS2)ccc1OCc1c(F)cccc1Cl (stereo not shown) [Compound 8012-5390] | 17.7 ± 0.98 µM | 23.3 ± 1.05 µM | 60 ± 4% | 147 ± 5.58 µM |  |  |  |  |  |  | 
6 | CN1CCN(C(=O)c2ccc(NCc3ccc(F)cc3)c(S(=O)(=O)Nc3cccc(C(F)(F)F)c3)c2)CC1 [Compound K659-0421] | 17 ± 0.37 µM | 7.97 ± 0.38 µM | 75 ± 8% | 73.7 ± 5.33 µM | non-ATP competitive inhibitors | < 100 µM |  |  |  |  | 
7 | CCOc1cc(/C=N/NC(=N)N)ccc1OCc1ccc(Cl)cc1 [Compound 4171-0375] | 30.1 ± 1.62 µM | 42.9 ± 1.63 µM | 98 ± 7% | 26.1 ± 2.94 µM | non-ATP competitive inhibitors | < 100 µM | 29.1 ± 1.23 µM | 94.5 µM | quickly bound and dissociated | 25.1 µM | quickly bound and dissociated
